# From US20200345725A1, “Methods and Compositions for Treating Cancer” (Omeros Corporation, priority 2019, published 2020)
# Key:
# Type in all cases: cell-based
# [1] = tested on: human PBMCs; assay: Intracellular cytokine staining in cell populations of human PBMC; conditions: 2 days after stimulation
# Procedure: In a first experiment, human PBMCs from two different donors were incubated overnight in the presence or absence of compound 10 (10 μM). […] The cells were fixed four hours later and stained with antibodies for cell type markers (FITC-anti-CD3 and PerCP-C95.5-anti-CD4) and IL-2 (PE-anti-IL-2). The cells were analyzed by flow cytometry. The fraction of cells with intracellular IL-2 (PE-labeled) was then determined in the CD4^+ and CD8^+ T cell populations, as well as in non-T cells.
# In a second experiment, human PBMCs from two different donors were stimulated with anti-CD3 and anti-CD28 antibodies and incubated in the absence or presence of increasing concentrations of compound 10 (0, 0.1, 0.3, 1.0, or 3.0 μM). The vesicular transport was blocked two days later with GolgiStop™. The cells were fixed four hours later and stained with antibodies for cell type markers (FITC-anti-CD3, PerCP-Cy5.5-anti-CD4, PE-anti-CD56 and Pacific Blue-anti-CD16) and either of the cytokines IL-2, IL-10 and IFN-γ (anti-cytokine antibodies were all APC-labeled). The cells were analyzed by flow cytometry. The fraction of cells with intracellular IL-2, IFN-γ, IL-10 and […] was then determined in different cellular populations.
# [2] = target: T1, WT GPR174 (Homo sapiens, UniProt Q9BXC1); assay: Inhibition of PS-induced GPR174 Gs signaling (GloSensor), HEK293 stably transfected with WT GPR174
# T1 construct: expressed in transfected cells; host or cells: HEK293
# T1 sequence (Q9BXC1 whole entry): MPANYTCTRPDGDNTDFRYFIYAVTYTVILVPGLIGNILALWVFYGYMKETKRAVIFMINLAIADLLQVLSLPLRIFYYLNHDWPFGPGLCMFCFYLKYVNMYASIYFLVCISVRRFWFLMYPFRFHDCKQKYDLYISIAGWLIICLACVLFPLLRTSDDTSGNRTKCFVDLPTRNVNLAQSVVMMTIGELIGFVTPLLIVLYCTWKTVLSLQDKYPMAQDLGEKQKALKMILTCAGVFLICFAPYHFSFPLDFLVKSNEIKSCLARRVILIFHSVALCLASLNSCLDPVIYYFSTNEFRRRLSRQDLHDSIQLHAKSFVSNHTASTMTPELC
# Procedure: The signaling experiment was conducted as described for FIG. 45, but instead of transient transfection a pool of HEK293 cells stably transfected with either WT GPR174 (for compound 10, as shown in FIG. 47A) or GPR174-v38 for the rest of the tested compounds, as shown in FIGS. 47B-47F)) and GloSensor cAMP biosensor was used. A dilution series of each of the GPR174 inhibitory compounds 10 (Group I), 6 (Group I), 11 (Group I), 20 (Group II), 23 (Group IV), and 30 (Group IV) were prepared in DMSO. After the plates were pre-read in a luminometer, 1 μL of the compound dilution was added per well (with control wells receiving 1 μL of DMSO) followed by addition of PS liposomes to the final concentration of 1 μM. Plates were read in a luminometer after 15 minutes of incubation. The ratio of luminescence after PS addition to the pre-read luminescence value was used as a measure of receptor-mediated signaling.
# [3] = tested on: co-cultured mouse C57BL/6+DBA1 splenocytes; assay: Cytokines in C57BL/6 + DBA1 splenocyte co-culture; conditions: 30 μM; day 6 after mixing
# Procedure: In order to stimulate T cells in mice, splenocytes obtained from two different mouse strains, C57BL/6 and DBA1, were mixed in culture.
# The effect of compound 10 on production of cytokines (IFN-γ, IL-5, TNF-α, IL-2, IL-6, IL-4, IL-10, IL-9, IL17A, IL17F, IL-21, IL-22 and IL-13) in mouse splenocyte co-cultures was determined as follows. Splenocytes obtained from two different mouse strains, C57BL/6 and DBA1, were mixed in culture in the presence or absence of 30 μM compound 10. Cytokine production of IFN-γ, IL-5, TNF-α, IL-2, IL-6, IL-4, IL-10, IL-9, IL-17A, IL-17F, IL-21, IL-22 and IL-13 was measured in the co-culture supernatant at day 4 and day 6 after mixing. Cytokine levels were determined by LEGENDplex™ bead-based immunoassays from BioLegend (San Diego, Calif.) according to the manufacturer's instructions.
# [4] = tested on: mouse splenocytes; assay: IL-2 in stimulated splenocyte cultures from WT or GPR174 KO mice; conditions: 48 hours; 10 μM; vs vehicle
# Procedure: GPR174 knockout (KO) mice (referred to also as “FKSG79”) were generated as described in Gragerov A. et al., PNAS vol 104(36): 14406-14411, 2007. Splenocyte cultures were generated from four GPR174 KO mice and four wild-type (WT) mice. Single-cell suspension of individual mouse spleens were pelleted by centrifugation, resuspended in RBC lysis buffer to remove erythrocytes, spun down again and resuspended in T cell medium (RPMI-1640, 10% FBS, 6 mM L-Glutamine, 12.5 mM HEPES, 50 μM 2-mercaptoethanol, Pen/Strep). Thus, prepared splenocytes were plated into 96-well plates at a density of 3×10^6 cells/mL, 250 μL/well and stimulated with 100 ng/mL of anti-CD3 antibodies and 100 ng/mL of anti-CD28. Cells were treated with either vehicle (0.1% DMSO) or GPR174 inhibitory Compound 10 (10 μM). 48 hours later, cell supernatants were analyzed for cytokine levels using LEGENDplex mouse Th1 cytokine detection kit (BioLegend). Four GPR174 KO and four WT spleens were analyzed, each in triplicate.
smiles,measurement,setting,value
CC1CCN(c2cc(N3CCN(S(=O)(=O)c4ccccc4)CC3)c([N+](=O)[O-])cc2F)CC1 [compound 10],intracellular IFN-γ production by cell type,[1]; 0.1-3.0 μM,"enhanced in CD4 and CD8 positive T cells, as well as in NK cells"
same,intracellular IL-2 production by cell type,[1]; 0.1-3.0 μM,"induced specifically in T cells, both CD4 and CD8 positive"
same,intracellular IL-10 production by cell type,[1]; 0.1-3.0 μM,"induced specifically in T cells, both CD4 and CD8 positive"
same,intracellular TNF-α production by cell type,[1]; 0.1-10 μM,"enhanced in CD4 and CD8 positive T cells, as well as in NK cells"
same,PS-mediated GPR174 Gs signaling (FIG. 47A),[2]; PS liposomes 1 μM,inhibited
same,IC50,"[2]; PS liposomes 1 μM, WT GPR174, read-out: apparent IC50, inhibition of PS-induced GPR174 Gs signaling",20 to 40 nM
same,inhibition of the PS signaling through the GPR174 receptor,[2]; at concentrations of 1-2 μM,almost complete inhibition
same,quantities of cytokines produced during splenocyte allogeneic stimulation,[3],strong alteration
same,"IL-2 in culture supernatants, GPR174 KO splenocytes",[4],no significant difference
same,"IL-2 in culture supernatants, WT splenocytes",[4],increased
